# Test results reported in patent publication EP3575287A1, “INHIBITORS OF N-ACYLPHOSPHATIDYLETHANOLAMINE PHOSPHOLIPASE D (NAPE-PLD)” (Universiteit Leiden, priority 2018, dated 2019).
# Target: T1, human NAPE-PLD (Homo sapiens, UniProt Q6IQ20)
# T1 construct: Full length human cDNA NAPE-PLD was obtained from Natsuo Ueda; made in house; host or cells: HEK293T cells, transient transfection (pcDNA3.1); membrane fraction used
# Assay: In vitro NAPE-PLD activity assay
# Assay type: biochemical
# Details: membrane protein fraction of HEK293T cells overexpressing human NAPE-PLD; substrate PED6 1 µM; 30 minutes preincubation at 37 °C
# Protocol: Full length human cDNA NAPE-PLD was obtained from Natsuo Ueda^1 and cloned into mammalian expression vector pcDNA3.1, containing a C-terminal Flag-tag and genes for ampicillin and neomycin resistance. All plasmids were grown in XL-10 Z-competent cells and prepped (Maxi Prep, Qiagen). Sequence analysis for the confirmation of the sequences was performed at the Leiden Genome Technology Centre.
# HEK293T were cultured at 37 °C and 7% CO2 in DMEM (Sigma Aldrich, D6546) with glutamax, penicillin (100 µg/ml), streptomycin (100 µg/ml) and 10% New Born Calf Serum iron supplemented (Hyclone SH30072.03). Cells were passaged twice a week to appropriate confluence.
# 24 hours before transfection 10^7 cells are seeded on a 15 cm dish. Two hours before transfection medium is refreshed, low volume. Transfection is performed with PEI in a ratio of 3:1 with human NAPE-PLD or Mock pcDNA3.1 Neo, 20 µg per dish. Medium is refreshed after 24 hours and cells are harvested after 72 hours.
# Cell pellets are re-suspended in lysis buffer: 20 mM Hepes, 2 mM DTT, 0.25 M sucrose, 1 mM MgCl2, 2.5 U/ml benzonase and incubated 30 minutes on ice. The cytosolic fraction (supernatant) is separated from the membranes by ultra-centrifugation (32000 rpm for 30 minutes 100,000g). The pellet is resuspended in storage buffer: 20 mM Hepes, 2 mM DTT (membrane fraction). All samples are stored at -80°C. Enzyme concentrations are determined using a Bradford assay.
# The NAPE-PLD activity assay is based on a previously reported method with small alterations.^2 The membrane protein fraction from transient overexpression of human NAPE-PLD in HEK293T cells was diluted to 0.4 mg/ml in assay buffer: 50 mM Tris-HCl (pH 7.5), 0.02% Triton X-100, 150 mM NaCl. The substrate PED6 (Invitrogen) 1 mM stock was consecutively diluted in DMSO (10x) and in assay buffer (10x) to make a 10 µM working solution. […] The assay is performed in a dark Greiner 96 wells plate, end volume 100 µl. The compound or DMSO is incubated with membrane protein lysate (final concentration 0.04 mg/ml) for 30 minutes at 37 °C. […] Mock lysate with DMSO is used for background substraction. IC50 curves are generated used Graphpad Prism v6.
# T1 sequence (Q6IQ20 whole entry): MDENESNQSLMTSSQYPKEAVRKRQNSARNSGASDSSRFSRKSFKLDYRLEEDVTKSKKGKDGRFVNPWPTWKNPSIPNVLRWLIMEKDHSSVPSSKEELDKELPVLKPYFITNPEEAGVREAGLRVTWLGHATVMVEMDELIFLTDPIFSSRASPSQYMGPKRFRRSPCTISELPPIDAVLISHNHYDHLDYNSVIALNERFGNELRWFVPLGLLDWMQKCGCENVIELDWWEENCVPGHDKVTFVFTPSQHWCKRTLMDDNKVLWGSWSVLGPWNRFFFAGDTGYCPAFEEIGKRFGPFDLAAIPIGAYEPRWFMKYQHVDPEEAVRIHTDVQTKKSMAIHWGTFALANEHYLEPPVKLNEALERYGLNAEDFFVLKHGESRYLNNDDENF
row,Compound,IC50
1,"CN(CCc1ccccc1)c1nc(C(=O)NCC2CC2)cc(N2CCCC(F)(F)C2)n1 [Example 86, N-(cyclopropylmethyl)-6-(3,3-difluoropiperidin-1-yl)-2-(methyl(phenethyl)amino)pyrimidine-4-carboxamide]",389 nM
2,"O=C(NCC1CC1)c1cc(N2CCOCC2)nc(N2CCN(C(=O)OCc3ccccc3)C(c3ccccc3)C2)n1 (centres unmarked) [Example 74, benzyl 4-(4-((cyclopropylmethyl)carbamoyl)-6-morpholinopyrimidin-2-yl)-2-phenylpiperazine-1-carboxylate]",3240 nM
3,"CN(CCc1ccccc1)c1nc(C(=O)NCC2CC2)cc(N2CCCCC2)n1 [Example 3, N-(cyclopropylmethyl)-2-(methyl(phenethyl)amino)-6-(piperidin-1-yl)pyrimidine-4-carboxamide]",646 nM
4,"COC1CCN(c2cc(C(=O)NCC3CC3)nc(N(C)CCc3ccccc3)n2)C1 (centres unmarked) [Example 34, N-(cyclopropylmethyl)-6-(3-methoxypyrrolidin-1-yl)-2-(methyl(phenethyl)amino)pyrimidine-4-carboxamide]",708 nM
5,"O=C(NCC1CC1)c1cc(N2CCOCC2)nc(N2CCCC(c3ccccc3)C2)n1 (centres unmarked) [Example 52, N-(cyclopropylmethyl)-6-morphol ino-2-(3-phenylpiperidin-1-yl)pyrimidine-4-carboxamide]",380 nM
6,"CN(CCO)c1cc(C(=O)NCC2CC2)nc(N(C)CCc2ccccc2)n1 [Example 30, N-(cyclopropylmethyl)-6-((2-hydroxyethyl)(methyl)amino)-2-(methyl(phenethyl)amino)pyrimidine-4-carboxamide]",1000 nM
7,"CN(CCc1ccccc1)c1nc(C(=O)NCC2CC2)cc(N2CCC(N(C)C)C2)n1 (centres unmarked) [Example 33, N-(cyclopropylmethyl)-6-(3-(dimethylamino)pyrrolidin-1-yl)-2-(methyl(phenethyl)amino)pyrimidine-4-carboxamide]",9550 nM
8,"O=C(NCC1CC1)c1cc(N2CCOCC2)nc(N2CCc3ccccc3C2)n1 [Example 63, N-(cyclopropylmethyl)-2-(3,4-dihydroisoquinolin-2(1H)-yl)-6-morphol inopyrimidine-4-carboxamide]",2240 nM
9,"O=C(NCC1CC1)c1cc(N2CCOCC2)nc(N2CCC[C@@H](c3ccccc3)C2)n1 [Example 46, (S)-N-(cyclopropylmethyl)-6-morpholino-2-(3-phenylpiperidin-1-yl)pyrimidine-4-carboxamide]",209 nM
10,"O=C(NCC1CC1)c1cc(N2CCOCC2)nc(N2CCNC(c3ccccc3)C2)n1 (centres unmarked) [Example 82, N-(cyclopropylmethyl)-6-morpholino-2-(3-phenylpiperazin-1-yl)pyrimidine-4-carboxamide]",7760 nM
11,"O=C(NCC1CC1)c1cc(N2CCOCC2)nc(N(CCc2ccccc2)c2ccccc2)n1 [Example 77, N-(cyclopropylmethyl)-6-morpholino-2-(phenethyl(phenyl)amino)pyrimidine-4-carboxamide]",501 nM
12,"CN1CCN(c2cc(C(=O)NCC3CC3)nc(N(C)CCc3ccccc3)n2)CC1 [Example 7, N-(cyclopropylmethyl)-2-(methyl(phenethyl)amino)-6-(4-methylpiperazin-1-yl)pyrimidine-4-carboxamide]",1580 nM
13,"CN(CCc1ccccc1)c1nc(C(=O)NCC2CC2)cc(N2CCNCC2)n1 [Example 11, N-(cyclopropylmethyl)-2-(methyl(phenethyl)amino)-6-(piperazin-1-yl)pyrimidine-4-carboxamide]",5370 nM
14,"CN(CCc1ccccc1)c1nc(C(=O)NCC2CC2)cc(N2CCN(C(=O)c3ccccc3)CC2)n1 [Example 16, 6-(4-benzoylpiperazin-1-yl)-N-(cyclopropylmethyl)-2-(methyl(phenethyl)amino)pyrimidine-4-carboxamide]",7760 nM
15,"CN(CCc1ccccc1)c1cc(C(=O)NCC2CC2)nc(N(C)CCc2ccccc2)n1 [Example 27, N-(cyclopropylmethyl)-2,6-bis(methyl(phenethyl)amino)pyrimidine-4-carboxamide]",155 nM
16,"CN(CCc1ccccc1)c1cc(C(=O)NCC2CC2)cc(N2CCOCC2)n1 [Example 75, N-(cyclopropylmethyl)-2-(methyl(phenethyl)amino)-6-morpholino isonicotinamide]",1450 nM
17,"CN(CCc1ccccc1)c1cc(N2CCOCC2)cc(C(=O)NCC2CC2)n1 [Example 79, N-(cyclopropylmethyl)-6-(methyl(phenethyl)amino)-4-morpholinopicolinamide]",10500 nM
18,"O=C(NCC1CC1)c1cc(N2CC[C@@H](O)C2)nc(N2CCC[C@@H](c3ccccc3)C2)n1 [Example 43, N-(cyclopropylmethyl)-6-((R)-3-hydroxypyrrolidin-1-yl)-2-((S)-3-phenylpiperidin-1-yl)pyrimidine-4-carboxamide]",110 nM

# The next lines start with the values.
row,IC50,Compound
1,11500 nM,"CN(CCc1ccncc1)c1nc(C(=O)NCC2CC2)cc(N2CCOCC2)n1 [Example 81, N-(cyclopropylmethyl)-2-(methyl(2-(pyridin-4-yl)ethyl)amino)-6-morpholinopyrimidine-4-carboxamide]"
2,3720 nM,"CN(CCc1ccccc1)c1nc(C(=O)NC2CC2)cc(N2CCOCC2)n1 [Example 13, N-cyclopropyl-2-(methyl (phenethyl)amino)-6-morpholinopyrimidine-4-carboxamide]"
3,10700 nM,"CN(CCc1cccnc1)c1nc(C(=O)NCC2CC2)cc(N2CCOCC2)n1 [Example 80, N-(cyclopropylmethyl)-2-(methyl(2-(pyridin-3-yl)ethyl)amino)-6-morpholinopyrimidine-4-carboxamide]"
4,891 nM,"Cc1ccccc1CCN(C)c1nc(C(=O)NCC2CC2)cc(N2CCOCC2)n1 [Example 78, N-(cyclopropylmethyl)-2-(methyl(2-methylphenethyl)amino)-6-morpholinopyrimidine-4-carboxamide]"
5,4570 nM,"CCNC(=O)c1cc(N2CCOCC2)nc(N(C)CCc2ccccc2)n1 [Example 4, N-ethyl-2-(methyl (phenethyl)amino)-6-morpholinopyrimidine-4-carboxamide]"
6,1100 nM,"O=C(NCC1CC1)c1cc(N2CCOCC2)nc(N(CCc2ccccc2)C2CC2)n1 [Example 70, 2-(cyclopropyl(phenethyl)amino)-N-(cyclopropylmethyl)-6-morpholinopyrimidine-4-carboxamide]"
7,708 nM,"CN(CCc1ccccc1)c1nc(C(=O)NCC2CC2)cc(N2CCOCC2)n1 [Example 49, N-(cyclopropylmethyl)-2-(methyl(phenethyl)amino)-6-morpholinopyrimidine-4-carboxamide]"
8,603 nM,"CN(CCc1ccccc1Oc1ccccc1)c1nc(C(=O)NCC2CC2)cc(N2CCOCC2)n1 [Example 67, N-(cyclopropylmethyl)-2-(methyl(2-phenoxyphenethyl)amino)-6-morpholinopyrimidine-4-carboxamide]"
9,490 nM,"CN(CCc1ccccc1-c1ccccc1)c1nc(C(=O)NCC2CC2)cc(N2CCOCC2)n1 [Example 71, 2-((2-([1,1'-biphenyl]-2-yl)ethyl)(methyl)amino)-N-(cyclopropylmethyl)-6-morpholino-pyrimidine-4-carboxamide]"
10,3470 nM,"COc1ccc(CCN(C)c2nc(C(=O)NCC3CC3)cc(N3CCOCC3)n2)cc1 [Example 64, N-(cyclopropylmethyl)-2-((4-methoxyphenethyl)(methyl)amino)-6-morpholinopyrimidine-4-carboxamide]"
11,9120 nM,"CN(Cc1ccccc1)c1nc(C(=O)NCC2CC2)cc(N2CCOCC2)n1 [Example 48, 2-(benzyl(methyl)amino)-N-(cyclopropylmethyl)-6-morpholinopyrimidine-4-carboxamide]"
12,3160 nM,"CN(CCCc1ccccc1)c1nc(C(=O)NCC2CC2)cc(N2CCOCC2)n1 [Example 58, N-(cyclopropylmethyl)-2-(methyl(3-phenylpropyl)amino)-6-morpholinopyrimidine-4-carboxamide]"
13,776 nM,"COc1ccccc1CCN(C)c1nc(C(=O)NCC2CC2)cc(N2CCOCC2)n1 [Example 83, N-(cyclopropylmethyl)-2-((2-methoxyphenethyl)(methyl)amino)-6-morpholinopyrimidine-4-carboxamide]"
14,3020 nM,"CN(CCc1ccc(Oc2ccccc2)cc1)c1nc(C(=O)NCC2CC2)cc(N2CCOCC2)n1 [Example 53, N-(cyclopropylmethyl)-2-(methyl(4-phenoxyphenethyl)amino)-6-morpholinopyrimidine-4-carboxamide]"
